Test results reported in patent US5047337A, “Ceramide-glycanase” (priority 1987, dated 1991).

Tests used:
[1] = tested on: Annelid ceramide-glycanase; experiment: Substrate specificity and pH optimum of annelid ceramide-glycanase from leeches and earthworms (general description); format: biochemical; conditions: enzyme obtained from leeches and earthworms
[2] = tested on: earthworm ceramide-glycanase; experiment: Hydrolysis of glycolipids with earthworm enzyme (TLC); format: biochemical, Lumbricus terrestris; conditions: 37° C.; for hydrolysis of the glycolipid by earthworm ceramide-glycanase: 20 nmol substrate, pH 4.5, sodium taurodeoxycholate 400 μg, 16 hours; for release of ceramides from the glycolipid by earthworm ceramide-glycanase: one unit enzyme, 17 h, TLC
Method: The assay for ceramide-glycanase was carried out essentially according to the method described above in Example 3. […] Glycolipid substrates included LacCer, GbOse3 Cer, GT1, […] and GlcCer. […] The mixture was vortexed and centrifuged to separate the organic phase (lower) from the aqueous phase (upper). […] For the detection of the released oligosaccharide, the aqueous phase was analyzed by TLC using n-butanol:acetic acid:H2 O (2:1:1) as the developing solvent. […] The chromatograms are seen in FIGS. 5 and 6.

leech ceramide-glycanase = experiment: Hydrolysis of glycolipids with leech enzyme (TLC); format: biochemical, leech (Hirudo medicinalis, Macrobdella decora); conditions: 30 nmol substrate, pH 4.5, sodium taurodeoxycholate 200 μg, 37° C.
Method: Assays were performed in 10×75 mm glass tubes. […] Glycolipid substrates included LacCer, GbOse3 Cer, GbOse4 Cer, GbOse5 Cer, nLcOse4 Cer, GM3, GM2, GM1, GD1a and GT1. After the mixture was incubated at 37° C. for a preset time, the reaction was terminated by adding 5 volumes of chloroform:methanol (2:1). The mixture was vortexed and briefly centrifuged to separate the organic phase (lower) from the aqueous phase (upper). Under this condition the enzyme protein became insoluble and stayed at the interface. […] For detection of the released oligosaccharide, the aqueous phase was analyzed by thin-layer chromatography using n-butanol:acetic acid:H2 O (2:1:1) as the developing solvent. […] The chromatograms are seen in FIGS. 2 and 3.

| Substance | hydrolysis of the glycosphingolipid by annelid ceramide-glycanase [1] | hydrolysis of the glycolipid by earthworm ceramide-glycanase [2] | release of ceramides from the glycolipid by earthworm ceramide-glycanase [2] | release of intact oligosaccharide from the glycolipid by leech ceramide-glycanase (leech ceramide-glycanase) |
| --- | --- | --- | --- | --- |
| galactosylceramide [GalCer] | will not generally hydrolyze | refractory | – | – |
| GD1a | hydrolyzes | – | able to release ceramides | liberated an intact sialic acid containing oligosaccharide |
| 3-sulfo-lactosyl ceramide | hydrolyzes | – | – | – |
| globotriaosyl-ceramide [GbOse3 Cer] | hydrolyzes | – | able to release ceramides | able to liberate the intact oligosaccharide |
| lactosyl-ceramide [LacCer] | hydrolyzes | hydrolyzed | able to release ceramides | able to liberate the intact oligosaccharide |
| lacto-N-neotetraoyl-ceramide [nLcOse4 Cer] | hydrolyzes | – | – | able to liberate the intact oligosaccharide |
| Galα1→4GalCer [DiGalCer] | – | not hydrolyzed | – | – |
| globotetraosyl-ceramide [GbOse4 Cer] | hydrolyzes | – | able to release ceramides | able to liberate the intact oligosaccharide |
| glucosylceramide [GlcCer] | will not generally hydrolyze | refractory | – | – |
| globopentaoyl-ceramicde [GbOse5 Cer] | hydrolyzes | – | able to release ceramides | able to liberate the intact oligosaccharide |
